In patent US9833497B2, “Human originated EGF domain proteins and use of the same” (CHENGDU SOURCEBIO LIMITED-LIABILITY COMPANY, priority 2013, dated 2017):

How the values were obtained:
Type in all cases: cell-based
Proteus vulgaris = assay: MIC against Gram-negative bacteria: Proteus vulgaris; conditions: 5×10^5 CFU/mL; for MIC P. vulgaris: two-fold serial dilution
In short: (§1)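 MIC = lowest concentration of recombinant protein showing no growth. Test proteins: purified human-derived EGF domain proteins, two-fold dilution series, three wells per concentration; inoculum 5×10^5 CFU/mL in LB; incubation 37° C with shaking at 175 rpm.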

Proteus mirabilis = assay: MIC against Gram-negative bacteria: Proteus mirabilis; conditions: 5×10^5 CFU/mL; for MIC P. mirabilis: two-fold serial dilution
In short: as §1

Aeromonas hydrophila = assay: MIC against Gram-negative bacteria: Aeromonas hydrophila; conditions: 5×10^5 CFU/mL; for MIC A. hydrophila: two-fold serial dilution
In short: as §1

Pseudomonas aeruginosa = assay: MIC against Gram-negative bacteria: Pseudomonas aeruginosa; conditions: 5×10^5 CFU/mL; for MIC P. aeruginosa: two-fold serial dilution
In short: as §1

E. coli BL21 = assay: MIC against Gram-negative bacteria: E. coli BL21; conditions: 5×10^5 CFU/mL; for MIC E. coli BL21: two-fold serial dilution
In short: as §1

Serratia marcescens = assay: MIC against Gram-negative bacteria: Serratia marcescens; conditions: 5×10^5 CFU/mL; for MIC S. marcescens: two-fold serial dilution
In short: as §1

Moraxella catarrhalis = assay: MIC against Gram-negative bacteria: Moraxella catarrhalis; conditions: 5×10^5 CFU/mL; for MIC M. catarrhalis: two-fold serial dilution
In short: as §1

Citrobacter diversus = assay: MIC against Gram-negative bacteria: Citrobacter diversus; conditions: 5×10^5 CFU/mL; for MIC C. diversus: two-fold serial dilution
In short: as §1

E. coli DH5α = assay: Antibacterial activity: MIC and growth curve against E. coli DH5α in 96-well plate; conditions: minimal inhibitory concentration against E. coli DH5α; 96-well plate, 5×10^5 CFU/mL, 37° C., judged after 8 h
In short: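 Log-phase bacteria (OD600 ~0.5) resuspended in LB at 5×10^5 CFU/mL, exposed to recombinant protein at 50, 25, 12.5 μg/mL final in triplicate, 37 °C shaking at 175 rpm. OD600 read every 30 min; MIC is lowest concentration showing no growth.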

Enterobacter cloacae = assay: MIC against Gram-negative bacteria: Enterobacter cloacae; conditions: 5×10^5 CFU/mL; for MIC E. cloacae: two-fold serial dilution
In short: as §1

Klebsiella pneumonia = assay: MIC against Gram-negative bacteria: Klebsiella pneumonia; conditions: 5×10^5 CFU/mL; for MIC K. pneumonia: two-fold serial dilution
In short: as §1

[1] = Proteus vulgaris, 10 h cultivation at 37° C.
[2] = Proteus mirabilis, 10 h cultivation at 37° C.
[3] = Aeromonas hydrophila, 10 h cultivation at 37° C.
[4] = Pseudomonas aeruginosa, 10 h cultivation at 37° C.
[5] = E. coli BL21, 10 h cultivation at 37° C.
[6] = Serratia marcescens, 10 h cultivation at 37° C.
[7] = Moraxella catarrhalis, 10 h cultivation at 37° C.
[8] = Citrobacter diversus, 10 h cultivation at 37° C.
[9] = Enterobacter cloacae, 10 h cultivation at 37° C.
[10] = Klebsiella pneumonia, 10 h cultivation at 37° C.

## PRT1181 (KEAVCKQGCNLLHGGCTVPGECRCSYGWQGRFCD; listed as Homo sapiens)
Proteus vulgaris; 10 h cultivation at 37° C.
  MIC P. vulgaris: 50 µg/mL
Proteus mirabilis; 10 h cultivation at 37° C.
  MIC P. mirabilis: 100 µg/mL
Aeromonas hydrophila; 10 h cultivation at 37° C.
  MIC A. hydrophila: 25 µg/mL
Pseudomonas aeruginosa; 10 h cultivation at 37° C.
  MIC P. aeruginosa: 12.5 µg/mL
E. coli BL21; 10 h cultivation at 37° C.
  MIC E. coli BL21: 50 µg/mL
Serratia marcescens; 10 h cultivation at 37° C.
  MIC S. marcescens: 25 µg/mL
Moraxella catarrhalis; 10 h cultivation at 37° C.
  MIC M. catarrhalis: 50 µg/mL
Citrobacter diversus; 10 h cultivation at 37° C.
  MIC C. diversus: 12.5 µg/mL
E. coli DH5α
  MIC: 12.5 µg/mL
Enterobacter cloacae; 10 h cultivation at 37° C.
  MIC E. cloacae: 25 µg/mL
Klebsiella pneumonia; 10 h cultivation at 37° C.
  MIC K. pneumonia: 50 µg/mL

## PRT1074 (QYRQCSGYCENFGTCQMAADGSRQCRCTAYFEGSRCE; listed as Homo sapiens)
Proteus vulgaris; 10 h cultivation at 37° C.
  MIC P. vulgaris: 12.5 µg/mL
Proteus mirabilis; 10 h cultivation at 37° C.
  MIC P. mirabilis: 12.5 µg/mL
Aeromonas hydrophila; 10 h cultivation at 37° C.
  MIC A. hydrophila: 12.5 µg/mL
Pseudomonas aeruginosa; 10 h cultivation at 37° C.
  MIC P. aeruginosa: 50 µg/mL
E. coli BL21; 10 h cultivation at 37° C.
  MIC E. coli BL21: 12.5 µg/mL
Serratia marcescens; 10 h cultivation at 37° C.
  MIC S. marcescens: 12.5 µg/mL
Moraxella catarrhalis; 10 h cultivation at 37° C.
  MIC M. catarrhalis: 12.5 µg/mL
Citrobacter diversus; 10 h cultivation at 37° C.
  MIC C. diversus: 12.5 µg/mL
E. coli DH5α
  MIC: 50 µg/mL
Enterobacter cloacae; 10 h cultivation at 37° C.
  MIC E. cloacae: 12.5 µg/mL
Klebsiella pneumonia; 10 h cultivation at 37° C.
  MIC K. pneumonia: 12.5 µg/mL

## PRT1099 (PSTVCGNEKTNLTCYNGGNCTEFQTELKCMCRPGFTGEWCE; listed as Homo sapiens)
Proteus vulgaris; 10 h cultivation at 37° C.
  MIC P. vulgaris: 50 µg/mL
Proteus mirabilis; 10 h cultivation at 37° C.
  MIC P. mirabilis: 25 µg/mL
Aeromonas hydrophila; 10 h cultivation at 37° C.
  MIC A. hydrophila: 50 µg/mL
Pseudomonas aeruginosa; 10 h cultivation at 37° C.
  MIC P. aeruginosa: 12.5 µg/mL
E. coli BL21; 10 h cultivation at 37° C.
  MIC E. coli BL21: 50 µg/mL
Serratia marcescens; 10 h cultivation at 37° C.
  MIC S. marcescens: 12.5 µg/mL
Moraxella catarrhalis; 10 h cultivation at 37° C.
  MIC M. catarrhalis: 12.5 µg/mL
Citrobacter diversus; 10 h cultivation at 37° C.
  MIC C. diversus: 25 µg/mL
E. coli DH5α
  MIC: 12.5 µg/mL
Enterobacter cloacae; 10 h cultivation at 37° C.
  MIC E. cloacae: 12.5 µg/mL
Klebsiella pneumonia; 10 h cultivation at 37° C.
  MIC K. pneumonia: 50 µg/mL

## PRT1363 (SEKRCPADCHNRGRCVDGRCECDDGFTGADCG; listed as Homo sapiens)
Proteus vulgaris; [1]
  MIC against P. vulgaris: 12.5 µg/mL
Proteus mirabilis; [2]
  MIC against P. mirabilis: 25 µg/mL
Aeromonas hydrophila; [3]
  MIC against A. hydrophila: 12.5 µg/mL
Pseudomonas aeruginosa; [4]
  MIC against P. aeruginosa: 12.5 µg/mL
E. coli BL21; [5]
  MIC against E. coli BL21: 12.5 µg/mL
Serratia marcescens; [6]
  MIC against S. marcescens: 50 µg/mL
Moraxella catarrhalis; [7]
  MIC against M. catarrhalis: 50 µg/mL
Citrobacter diversus; [8]
  MIC against C. diversus: 25 µg/mL
E. coli DH5α
  MIC: 12.5 µg/mL
Enterobacter cloacae; [9]
  MIC against E. cloacae: 50 µg/mL
Klebsiella pneumonia; [10]
  MIC against K. pneumonia: 12.5 µg/mL

## PRT592 (CDCDFRGTEGPGCDKASGRCLCRPGLTGPRCDQCQRGYCNRYPVCVA; listed as Homo sapiens)
Proteus vulgaris; 96-well plate, 37° C., 10 h
  MIC against P. vulgaris: 25 µg/mL
Proteus mirabilis; 96-well plate, 37° C., 10 h
  MIC against P. mirabilis: 50 µg/mL
Aeromonas hydrophila; 96-well plate, 37° C., 10 h
  MIC against A. hydrophila: 12.5 µg/mL
Pseudomonas aeruginosa; 96-well plate, 37° C., 10 h
  MIC against P. aeruginosa: 50 µg/mL
E. coli BL21; 96-well plate, 37° C., 10 h
  MIC against E. coli BL21: 12.5 µg/mL
Serratia marcescens; 96-well plate, 37° C., 10 h
  MIC against S. marcescens: 12.5 µg/mL
Moraxella catarrhalis; 96-well plate, 37° C., 10 h
  MIC against M. catarrhalis: 100 µg/mL
Citrobacter diversus; 96-well plate, 37° C., 10 h
  MIC against C. diversus: 50 µg/mL
E. coli DH5α
  MIC: 50 µg/mL
Enterobacter cloacae; 96-well plate, 37° C., 10 h
  MIC against E. cloacae: 50 µg/mL
Klebsiella pneumonia; 96-well plate, 37° C., 10 h
  MIC against K. pneumonia: 12.5 µg/mL

## PRT1362 (GKPTCPHACHTQGRCEEGQCVCDEGFAGVDCS; listed as Homo sapiens)
Proteus vulgaris; [1]
  MIC against P. vulgaris: 12.5 µg/mL
Proteus mirabilis; [2]
  MIC against P. mirabilis: 12.5 µg/mL
Aeromonas hydrophila; [3]
  MIC against A. hydrophila: 50 µg/mL
Pseudomonas aeruginosa; [4]
  MIC against P. aeruginosa: 50 µg/mL
E. coli BL21; [5]
  MIC against E. coli BL21: 25 µg/mL
Serratia marcescens; [6]
  MIC against S. marcescens: 12.5 µg/mL
Moraxella catarrhalis; [7]
  MIC against M. catarrhalis: 50 µg/mL
Citrobacter diversus; [8]
  MIC against C. diversus: 12.5 µg/mL
E. coli DH5α
  MIC: 12.5 µg/mL
Enterobacter cloacae; [9]
  MIC against E. cloacae: 12.5 µg/mL
Klebsiella pneumonia; [10]
  MIC against K. pneumonia: 25 µg/mL

## PRT109 (ASQACRTNPCLHGGRCLEVEGHRLCHCPVGYTGAFCD; listed as Homo sapiens)
Proteus vulgaris; Proteus vulgaris, 96-well plate, 37° C., 10 h
  MIC (μg/mL) P. vulgaris: 25 µg/mL
Proteus mirabilis; Proteus mirabilis, 96-well plate, 37° C., 10 h
  MIC (μg/mL) P. mirabilis: 12.5 µg/mL
Aeromonas hydrophila; Aeromonas hydrophila, 96-well plate, 37° C., 10 h
  MIC (μg/mL) A. hydrophila: 12.5 µg/mL
Pseudomonas aeruginosa; Pseudomonas aeruginosa, 96-well plate, 37° C., 10 h
  MIC (μg/mL) P. aeruginosa: 12.5 µg/mL
E. coli BL21; E. coli BL21, 96-well plate, 37° C., 10 h
  MIC (μg/mL) E. coli BL21: 12.5 µg/mL
Serratia marcescens; Serratia marcescens, 96-well plate, 37° C., 10 h
  MIC (μg/mL) S. marcescens: 50 µg/mL
Moraxella catarrhalis; Moraxella catarrhalis, 96-well plate, 37° C., 10 h
  MIC (μg/mL) M. catarrhalis: 25 µg/mL
Citrobacter diversus; Citrobacter diversus, 96-well plate, 37° C., 10 h
  MIC (μg/mL) C. diversus: 12.5 µg/mL
E. coli DH5α
  MIC: 12.5 µg/mL
Enterobacter cloacae; Enterobacter cloacae, 96-well plate, 37° C., 10 h
  MIC (μg/mL) E. cloacae: 12.5 µg/mL
Klebsiella pneumonia; Klebsiella pneumonia, 96-well plate, 37° C., 10 h
  MIC (μg/mL) K. pneumonia: 12.5 µg/mL
